According to ChEMBL document CHEMBL6103604, “Novel Bicyclic Amines as CDK2 Inhibitors for Treating Metastatic Breast Cancer or Metastatic Lung Cancer” (ACS Med Chem Lett, 2025):

Biological target: Cyclin-dependent kinase 2/cyclin E1 (Homo sapiens, UniProt P24941)
Assay: Inhibition of N-terminal GST-tagged wild-type full-length human CDK2 (1 to 298 residues)/FLAG-tagged human Cyclin E1 (1 to 410 residues) extracted from baculovirus infected Sf21 cells using ULight-labeled eIF4E-binding protein-1 as substrate incubated for 60 mins in the presence of ATP by HTRF assay

Compound | IC50 [µM]
C[C@@H](Oc1c(-c2cn[nH]c2)ccn2nc(NC3CCOCC3)nc12)C(F)F | ≤ 0.01
C[C@@H](Oc1c(-c2cn[nH]c2)ccn2nc(NC3CCOCC3)nc12)C(F)(F)F | ≤ 0.01
C[C@@H](Oc1c(-c2cn[nH]c2)ncn2nc(NC3CCOCC3)nc12)C(F)(F)F | ≤ 0.01
C[C@@H](Oc1c(-c2cn[nH]c2)ncn2nc(NC3CCOCC3)nc12)C(F)F | ≤ 0.01
CC(C)Oc1c(-c2cn[nH]c2)ccn2nc(NC3CCOCC3)nc12 | ≤ 0.01
CC(C)Oc1c(-c2cn[nH]c2)ncn2nc(NC3CCOCC3)nc12 | ≤ 0.01
